Counter-ions that a name gives are not always drawn.

For this assay, the system named is Cdc7 (pS40MCM2 levels in HCT116 cells). As to the kind of experiment: Cdc7 Cell Pharmacodynamics Assay Method 2B: pS40MCM2 levels in HCT116 cells, 18 hours. The following applies: Homo sapiens, HCT-116, read-out: Biomarker Method 2B (pEC50) (converted). In kind it is cell-based. Put shortly: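 HCT116 cells seeded at 20,000/well, settled overnight, then treated with compound (1:400 dilution from compound plate) for 6 h (Method 2A) or 18 h (Method 2B) at 37° C. Lysates captured on total-MCM2 antibody plates; pS40 MCM2 detected with rabbit anti-pMCM2 Ser40, HRP secondary and chemiluminescent substrate.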
Take `C[C@@H]1CNCCN1c1nc(-c2ccnc(F)c2)[nH]c(=O)c1Cl` [Compound 323]: the EC50 was 5.62 nM. Regarding `O=c1[nH]c(-c2ccnc(F)c2)nc(N2CCCC(F)(F)C2)c1Cl` [Compound 90, 5-chloro-4-(3,3-difluoro-1-piperidyl)-2-(2-fluoro-4-pyridyl)-1H-pyrimidin-6-one], the EC50 is 13.5 nM.

On to `O=c1[nH]c(-c2ccnc(F)c2)nc(N2CCNCC(F)(F)C2)c1Cl` [Compound 312, 5-chloro-4-(6,6-difluoro-1,4-diazepan-1-yl)-2-(2-fluoro-4-pyridyl)-1H-pyrimidin-6-one hydrochloride], for which the EC50 was 7.59 nM.

Source of the values: US10919896B2, “Preparation and uses of pyrimidinone derivatives” (Cancer Research Technology Limited, priority 2016, dated 2021).
